Entries after “also recorded” stand apart in the source; their conditions may differ.
Legend:
RPMI 8826 = assay: Efficacy in the multiple myeloma xenograft model RPMI 8826; assay type: in vivo, mouse; conditions: t(14;16)-positive RPMI 8826 xenograft; compound 9 10 mg/kg per os once daily; vs bortezomib, carfilzomib, ixazomib; FIG. 5
Description: (§1) The human multiple myeloma cell line RPMI 8826 was obtained from the ATCC. 100 μL of a suspension of 5 million cells in PBS mixed 1:1 with Matrigel was injected per mouse. Bortezomib, carfilzomib, ixazomib and compound 9 were formulated and applied as described in Example 1.

LMP7 [1] = target: T1, LMP7 (Homo sapiens, UniProt P20618+P28062); assay: LMP7 activity in MM.1S xenograft tumors in vivo, cleavage of (Ac-ANW)2R110; parameters: from tissue; host or cells: MM.1S xenograft tumor lysate (tumors grown in mice); species or system mouse; conditions: compound 9 applied once per os 10 mg/kg, vs control and bortezomib, carfilzomib, ixazomib single dose, FIG. 6
Description: MM.1S xenograft tumors were established as described in Example 4. Compound 9, bortezomib, carfilzomib and ixazomib were formulated as described in Example 1. Compound 9 was applied once per os to mice at a dose of 10 mg/kg. Bortezomib was applied once i.v. to mice at a dose of 0.5 mg/kg. Ixazomib was applied once per os to mice at a dose of 3 mg/kg. Carfilzomib was applied once i.v. at a dose of 3 mg/kg. MM1S tumors were collected immediately following mouse euthanasia and lysed as described previously (Buchstaller et al., 2019). For assessment of LMP7 activity, 10 μg of tumor lysate protein in a total volume of 50 μL was mixed in 96-well plates with 50 μl of a buffer containing 100 mM HEPES pH 7.6, 60 mM MgSO4, 1 mM EDTA, 40 μg/ml digitonin and the fluorogenic LMP7 substrate (Ac-ANW)2R110 (from Biomol) at a final concentration of 10 μM. Plates were then shaken briefly, incubated for 60 min at 37° C. and then centrifuged at 300×g. Fluorescence (excitation 485 nm, emission 535 nm) was measured using an EnVision 2104 plate reader (PerkinElmer).

Caspase-3/-7 activity = assay: Caspase 3/7 activity in MM.1S xenograft tumors in vivo; parameters: species or system mouse; conditions: compound 9 applied once per os 10 mg/kg, vs vehicle control and bortezomib, carfilzomib, ixazomib single dose, FIG. 7
Description: MM.1S xenograft tumors samples from the same experiment described in Example 6 were used for assessment of Caspase-3/-7 activity as an indication of tumor cell apoptosis. 50 μg of tumor lysate protein in a total volume of 50 μL was mixed with the Caspase-Glo®3/7 Reagent (Promega) in 96-well plates according to the manufacturer's instruction. Luminescence was measured using an Envision 2104 plate reader (PerkinElmer).

NCI-H929 = assay: Efficacy in the multiple myeloma xenograft model NCI-H929; assay type: in vivo, mouse; conditions: t(4;14)-positive NCI-H929 xenograft, compound 9 10 mg/kg per os once daily
Description: as §1, with “NCI-H929” for “RPMI 8826”, “American Type Culture Collection (ATCC).” for “ATCC.”, “carfilzomib” for “carfilzomib, ixazomib”, “1. Mean tumor volume and SEM are indicated.” for “1.”
NCI-H929 xenograft tumors were established as described in Example 2. Compound 9 and ixazomib were formulated and applied as described in Example 1.

OPM-2 = assay: Efficacy in the multiple myeloma xenograft model OPM-2; assay type: in vivo, mouse; conditions: t(4;14)-positive OPM-2 xenograft; compound 9 10 mg/kg per os once daily; vs bortezomib 0.5 mg/kg i.v., ixazomib 3 mg/kg per os, carfilzomib 2 mg/kg i.p., each twice per week; FIG. 1
Description: The human multiple myeloma cell line OPM-2 was obtained from the German Collection of Microorganisms and Cell Cultures GmbH (DSMZ). 100 μL of a suspension of 5 million cells in phosphate-buffered saline (PBS) mixed 1:1 with Matrigel (Becton Dickinson) was injected per mouse. Bortezomib was formulated in Mannitol (Merck KGaA) in 0.9% NaCl and applied intravenously (i.v.) to mice at a dose of 0.5 mg/kg twice per week. Ixazomib was formulated in 5% KLEPTOSE® in water and applied orally (per os) to mice at a dose of 3 mg/kg twice per week. Carfilzomib was formulated in 5% KLEPTOSE® (AppliChem) in 50 mM sodium citrate buffer and applied by intraperitoneal (i.p.) injection to mice at a dose of 2 mg/kg twice per week. Compound 9 was formulated in 0.5% METHOCEL™ Premium K4M (Colorcon) and 0.25% Tween® 20 in PBS at applied per os to mice once daily at a dose of 10 mg/kg. Mean tumor volume and standard error of the mean (SEM) are indicated.

MM.1S = assay: Efficacy in the multiple myeloma xenograft model MM.1S; assay type: in vivo, mouse; conditions: t(14;16)-positive MM.1S xenograft; compound 9 10 mg/kg per os once daily; vs bortezomib, ixazomib, carfilzomib 3 mg/kg i.v. twice per week; FIG. 4
Description: The human multiple myeloma cell line MM.1S was obtained from the ATCC. 100 μL of a suspension of 5 million cells in PBS was injected per mouse. Bortezomib, ixazomib and compound 9 were formulated and applied as described in Example 1. Carfilzomib was formulated as described in Example 1 and applied intravenously (i.v.) to mice at a dose of 3 mg/kg twice per week.

LMP7 [2] = target: T1, LMP7; conditions: as previously described, Singh et al., 2011; cited from earlier work

Row | Compound | in vivo anti-tumor activity (mean tumor volume) (RPMI 8826) | LMP7 activity in tumor lysate (LMP7 [1]) | Caspase-3/-7 activity (induction of apoptosis) in tumor lysate (Caspase-3/-7 activity) | in vivo anti-tumor activity (mean tumor volume) (NCI-H929; vs bortezomib and carfilzomib, FIG. 2) | in vivo anti-tumor activity (mean tumor volume) (NCI-H929; vs ixazomib 3 mg/kg per os twice per week, FIG. 3) | in vivo anti-tumor activity (mean tumor volume) (OPM-2) | in vivo anti-tumor activity (mean tumor volume) (MM.1S) | LMP7 selectivity (LMP7 [2]) [fold]
1 | O=C(N[C@@H](Cc1coc2ccccc12)B(O)O)[C@@H]1C[C@H]2CC[C@@H]1O2 [Compound 9, [(1R)-2-(1-benzofuran-3-yl)-1-{[(1S,2R,4R)-7-oxabicyclo[2.2.1]heptan-2-yl]formamido}ethyl]boronic acid] | increased in vivo activity of compound 9 as compared to ixazomib and carfilzomib, and comparable activity when compared to bortezomib | stronger and more prolonged than for the other pan-proteasome inhibitors tested; also recorded: significant reduction of enzymatic function of LMP7 | longer than compared to the pan-proteasome inhibitors; also recorded: significant induction of apoptosis | increased efficacy as compared to bortezomib and carfilzomib | comparable activity of compound 9 as compared to the pan-proteasome inhibitor ixazomib | increased efficacy as compared to bortezomib, carfilzomib, and ixazomib | increased anti-tumor activity of compound 9 as compared to bortezomib and carfilzomib, and comparable activity as compared to ixazomib | –
2 | CC1=C(C(=O)N[C@H](C)C(=O)N[C@@H](Cc2c[nH]c3ccccc23)C(=O)N[C@@H](Cc2ccccc2)C(=O)[C@@]2(C)CO2)Cc2ccccc21 [PR-924] | – | – | – | – | – | – | – | 100
